Data published in PubChem BioAssay AID1919004 (Molecular Pharmacology Branch, DTP, NCI, 2023).
“And” between values parts separate entries of the source, which are not always exact repeats. Identical values can stand only once.

Test system: 883617-216-R-J1-PDC complex spheroids, growth, % test/control
Assay: Anticancer human tumor 883617-216-R-J1-PDC patient-derived bladder carcinoma cell line growth inhibition [AhR]
Settings: for viability, T/C: stronger effect = lower value
Method in brief: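 Complex tumor spheroids co-cultured with HUVEC and human MSC stroma; AhR antagonists tested in combination with standard-of-care and investigational agents. Top concentration at or near clinical Cmax (else 10 microM), half-log dilutions; growth expressed as percent test/control.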

[1] = curve of first compound, second compound 0.1 µM
[2] = curve of first compound, second compound 0.316 µM
[3] = curve of first compound, second compound 1 µM
[4] = curve of first compound, second compound 3.16 µM
[5] = curve of first compound, second compound 10 µM
[6] = second compound 0.1 µM, first compound 0.000316 µM
[7] = second compound 0.1 µM, first compound 0.001 µM
[8] = second compound 0.1 µM, first compound 0.00316 µM
[9] = second compound 0.1 µM, first compound 0.01 µM
[10] = second compound 0.1 µM, first compound 0.0316 µM
[11] = second compound 0.1 µM, first compound 0.1 µM
[12] = second compound 0.316 µM, first compound 0.000316 µM
[13] = second compound 0.316 µM, first compound 0.001 µM
[14] = second compound 0.316 µM, first compound 0.00316 µM
[15] = second compound 0.316 µM, first compound 0.01 µM
[16] = second compound 0.316 µM, first compound 0.0316 µM
[17] = second compound 0.316 µM, first compound 0.1 µM
[18] = second compound 1 µM, first compound 0.000316 µM
[19] = second compound 1 µM, first compound 0.001 µM
[20] = second compound 1 µM, first compound 0.00316 µM
[21] = second compound 1 µM, first compound 0.01 µM
[22] = second compound 1 µM, first compound 0.0316 µM
[23] = second compound 1 µM, first compound 0.1 µM
[24] = second compound 3.16 µM, first compound 0.000316 µM
[25] = second compound 3.16 µM, first compound 0.001 µM
[26] = second compound 3.16 µM, first compound 0.00316 µM
[27] = second compound 3.16 µM, first compound 0.01 µM
[28] = second compound 3.16 µM, first compound 0.0316 µM
[29] = second compound 3.16 µM, first compound 0.1 µM
[30] = second compound 10 µM, first compound 0.000316 µM
[31] = second compound 10 µM, first compound 0.001 µM
[32] = second compound 10 µM, first compound 0.00316 µM
[33] = second compound 10 µM, first compound 0.01 µM
[34] = second compound 10 µM, first compound 0.0316 µM
[35] = second compound 10 µM, first compound 0.1 µM
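Note: exposure lasted 7 days after dosing on day 3 of spheroid growth.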

`Cn1ncnc1C1c2n[nH]c(=O)c3cc(F)cc(c23)NC1c1ccc(F)cc1` (configuration not stated) + Cc1cncc(-c2nc(NCCc3c[nH]c4ccccc34)c3ncn(C(C)C)c3n2)c1 showed an IC50 [1] of over 100 nM, an IC50 [2] of over 100 nM and an IC50 [3] of over 100 nM. It also gave an IC50 [4] of over 100 nM, an IC50 [5] of over 100 nM and a viability, T/C [6] of 97.3%. For the same molecule, the viability, T/C [7] was 97.5%, the viability, T/C [8] was 82.8% and the viability, T/C [9] was 80.6%. For the same molecule, the viability, T/C [10] was 78%, the viability, T/C [11] was 75.2% and the viability, T/C [12] was 90.7%. The viability, T/C [13] was 97.4%, the viability, T/C [14] was 90.1% and the viability, T/C [15] was 86.5%. The viability, T/C [16] was 90.1%, the viability, T/C [17] was 80.9% and the viability, T/C [18] was 100%. It also gave a viability, T/C [19] of 101%, a viability, T/C [20] of 97.2% and a viability, T/C [21] of 87.5%. It also gave a viability, T/C [22] of 82.7%, a viability, T/C [23] of 88.7% and a viability, T/C [24] of 106%. It also gave a viability, T/C [25] of 106%, a viability, T/C [26] of 102% and a viability, T/C [27] of 103%. The viability, T/C [28] was 98.2%, the viability, T/C [29] was 95.1% and the viability, T/C [30] was 51%. It also gave a viability, T/C [31] of 56.3%, a viability, T/C [32] of 56.5% and a viability, T/C [33] of 61.2%. The viability, T/C [34] was 56.3% and the viability, T/C [35] was 62.6%.

`CCc1c2c(nc3ccc(O)cc13)-c1cc3c(c(=O)n1C2)COC(=O)[C@]3(O)CC` + Cc1ccccc1N=Nc1ccc(NC(=O)c2ccnn2C)c(C)c1 gave an IC50 [1] of 185 nM, an IC50 [2] of 163 nM and an IC50 [3] of 121 nM. The IC50 [4] was 109 nM, the IC50 [5] was 199 nM and the viability, T/C (second compound 0.1 µM, first compound 0.000949 µM) was 92%. It also gave a viability, T/C (second compound 0.1 µM, first compound 0.003 µM) of 84%, a viability, T/C (second compound 0.1 µM, first compound 0.00949 µM) of 72.7% and a viability, T/C (second compound 0.1 µM, first compound 0.03 µM) of 70.2%. The viability, T/C (second compound 0.1 µM, first compound 0.0949 µM) was 60.3%, the viability, T/C (second compound 0.1 µM, first compound 0.3 µM) was 42.1% and the viability, T/C (second compound 0.316 µM, first compound 0.000949 µM) was 80.8%. For the same molecule, the viability, T/C (second compound 0.316 µM, first compound 0.003 µM) was 82.2%, the viability, T/C (second compound 0.316 µM, first compound 0.00949 µM) was 77.6% and the viability, T/C (second compound 0.316 µM, first compound 0.03 µM) was 66.8%. It also gave a viability, T/C (second compound 0.316 µM, first compound 0.0949 µM) of 56.5%, a viability, T/C (second compound 0.316 µM, first compound 0.3 µM) of 43.6% and a viability, T/C (second compound 1 µM, first compound 0.000949 µM) of 80.9%. It also gave a viability, T/C (second compound 1 µM, first compound 0.003 µM) of 83.8%, a viability, T/C (second compound 1 µM, first compound 0.00949 µM) of 79.1% and a viability, T/C (second compound 1 µM, first compound 0.03 µM) of 61.6%. It also gave a viability, T/C (second compound 1 µM, first compound 0.0949 µM) of 54.4%, a viability, T/C (second compound 1 µM, first compound 0.3 µM) of 44% and a viability, T/C (second compound 3.16 µM, first compound 0.000949 µM) of 81.7%. It also gave a viability, T/C (second compound 3.16 µM, first compound 0.003 µM) of 84%, a viability, T/C (second compound 3.16 µM, first compound 0.00949 µM) of 70.7% and a viability, T/C (second compound 3.16 µM, first compound 0.03 µM) of 64.7%. It also gave a viability, T/C (second compound 3.16 µM, first compound 0.0949 µM) of 51.5%, a viability, T/C (second compound 3.16 µM, first compound 0.3 µM) of 39.4% and a viability, T/C (second compound 10 µM, first compound 0.000949 µM) of 78.8%. It also gave a viability, T/C (second compound 10 µM, first compound 0.003 µM) of 77.2%, a viability, T/C (second compound 10 µM, first compound 0.00949 µM) of 72.6% and a viability, T/C (second compound 10 µM, first compound 0.03 µM) of 74.8%. It also gave a viability, T/C (second compound 10 µM, first compound 0.0949 µM) of 56.8% and a viability, T/C (second compound 10 µM, first compound 0.3 µM) of 44.9%.

`CC1COCCN1c1cc(C2(S(C)(=N)=O)CC2)nc(-c2ccnc3[nH]ccc23)n1` (configuration not stated) was tested, and the viability, T/C (compound 0.0316 µM) was 99.7% and 109% and 114%, the viability, T/C (compound 0.1 µM) was 97.4% and 97.5% and 101% and the viability, T/C (compound 0.316 µM) was 106% and 101% and 71.2%. For the same molecule, the viability, T/C (compound 1 µM) was 88.5% and 99.6% and 63.6%, the viability, T/C (compound 3.16 µM) was 76% and 80.4% and 89.1% and the viability, T/C (compound 10 µM) was 48.9% and 56.1% and 102%. For the same molecule, the IC50 (curve of compound) was 9600 nM and > 10000 nM.

For `CC[C@@]1(O)C(=O)OCc2c1cc1n(c2=O)Cc2cc3c(CN(C)C)c(O)ccc3nc2-1` + Cc1ccccc1N=Nc1ccc(NC(=O)c2ccnn2C)c(C)c1, the IC50 [1] was over 100 nM, the IC50 [2] was over 100 nM and the IC50 [3] was over 100 nM. For the same molecule, the IC50 [4] was over 100 nM, the IC50 [5] was over 100 nM and the viability, T/C [6] was 90.7%. The viability, T/C [7] was 85%, the viability, T/C [8] was 86.3% and the viability, T/C [9] was 80.3%. It also gave a viability, T/C [10] of 76.9%, a viability, T/C [11] of 71.1% and a viability, T/C [12] of 86.8%. For the same molecule, the viability, T/C [13] was 86.6%, the viability, T/C [14] was 76.2% and the viability, T/C [15] was 73%. For the same molecule, the viability, T/C [16] was 70%, the viability, T/C [17] was 62% and the viability, T/C [18] was 82.5%. For the same molecule, the viability, T/C [19] was 80.3%, the viability, T/C [20] was 79.4% and the viability, T/C [21] was 71.4%. It also gave a viability, T/C [22] of 66%, a viability, T/C [23] of 69.6% and a viability, T/C [24] of 70%. For the same molecule, the viability, T/C [25] was 79.1%, the viability, T/C [26] was 78.6% and the viability, T/C [27] was 74.7%. For the same molecule, the viability, T/C [28] was 70.7%, the viability, T/C [29] was 71.3% and the viability, T/C [30] was 74.2%. It also gave a viability, T/C [31] of 80.7%, a viability, T/C [32] of 78% and a viability, T/C [33] of 70.9%. The viability, T/C [34] was 75.6% and the viability, T/C [35] was 73%.
